Like-named read-outs stand apart in the source and are kept apart here.
Tests used:
KRas G12C = KRas G12C (Homo sapiens, UniProt P01116, C118S/C51S/C80L/G12C); test: KRas G12C Modification Assay (LCMS detection of covalent adduct); type: binding
Outline: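 Cys-light KRas G12C mutant protein incubated with compound in K-Ras assay buffer, reactions quenched at set time points with 25 mM acetic acid and analysed by intact-protein LC/MS on a C-3 column. Deconvoluted mass heights expressed as percent of control (POC) relative to compound-free protein.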

[1] = system: NCI-H358 cells (express KRas G12C), Phospho-ERK; test: Cellular inhibition of KRas G12C: Phospho-ERK in NCI-H358 cells; type: cell-based
Outline: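 IC50 derived by 4-parameter fit of GAPDH-normalized pERK(Thr202/Tyr204) signal, as percent of DMSO control. Signal came from in-cell immunodetection with infrared secondaries after 3 h compound exposure of KRas G12C NCI-H358 cells at 0.5% DMSO.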

[2] = normalized percent of control, tested at 5 μM concentration for 3 hours
[3] = Homo sapiens, NCI-H358, 3 h, pERK(Thr202/Tyr204) normalized with GAPDH, NCI-H358 cells, 3 hours, read-out: IC50
[4] = Homo sapiens, pERK(Thr202/Tyr204) normalized with GAPDH, NCI-H358 cells, 3 hours, read-out: IC50

| Structure (SMILES) | POC (KRas G12C; [2]) | IC50 [1, 3] | further results |
| --- | --- | --- | --- |
| C=CC(=O)N1CCN(c2nc(OCC3CCN(Cc4ccccc4)C3)nc3c2CCN(c2cc(O)cc4ccccc24)C3)CC1 (stereo not shown) [Example 189, 1-(4-(2-((1-benzylpyrrolidin-3-yl)methoxy)-7-(3-hydroxynaphthalen-1-yl)-5,6,7,8-tetrahydropyrido[3,4-d]pyrimidin-4-yl)piperazin-1-yl)prop-2-en-1-one] | C (“C”>50% POC) | > 1000 nM |  |
| C=CC(=O)N1CCN(c2nc(OC(C)CCN3CCOCC3)nc3c2CCN(c2cc(O)cc4ccccc24)C3)CC1 (stereo not shown) [Example 93, 1-(4-(7-(3-hydroxynaphthalen-1-yl)-2-((4-morpholinobutan-2-yl)oxy)-5,6,7,8-tetrahydropyrido[3,4-d]pyrimidin-4-yl)piperazin-1-yl)prop-2-en-1-one] | C (“C”>50% POC) | > 1000 nM |  |
| C=CC(=O)N1CCN(c2nc(OC[C@@H]3CCCN3C)nc3c2CCN(c2cnccc2OC)C3)C[C@@H]1CC#N [Example 340, 2-((S)-1-acryloyl-4-(7-(4-methoxypyridin-3-yl)-2-(((S)-1-methylpyrrolidin-2-yl)methoxy)-5,6,7,8-tetrahydropyrido[3,4-d]pyrimidin-4-yl)piperazin-2-yl)acetonitrile] | C (“C”>50% POC) | > 1000 nM |  |
| C=CC(=O)N1CCN(c2nc(OCCN(C)C)nc3c2CCN(c2ccccc2C(F)(F)F)C3)CC1CC#N (stereo not shown) [Example 296, 2-[4-[2-[2-(dimethylamino)ethoxy]-7-[2-(trifluoromethyl)phenyl]-6,8-dihydro-5H-pyrido[3,4-d]pyrimidin-4-yl]-1-prop-2-enoyl-piperazin-2-yl]acetonitrile] | C (“C”>50% POC) |  | IC50 ([1]; pERK(Thr202/Tyr204) normalized with GAPDH, NCI-H358 cells, 3 hours, read-out: IC50): 0.1 to 1000 nM |
| C=CC(=O)N1CCN(c2nc(OCCN3CCC[C@H](OC)C3)nc3c2CCN(c2cc(O)cc4ccccc24)C3)CC1 [Example 98, (S)-1-(4-(7-(3-hydroxynaphthalen-1-yl)-2-(2-(3-methoxypiperidin-1-yl)ethoxy)-5,6,7,8-tetrahydropyrido[3,4-d]pyrimidin-4-yl)piperazin-1-yl)prop-2-en-1-one] | C (“C”>50% POC) | > 1000 nM |  |
| C=CC(=O)N1CCN(c2nc(OC[C@@H]3CCCN3C)nc3c2CCN(c2c(C(C)C)ccc4[nH]ncc24)C3)CC1 [Example 248, (S)-1-(4-(7-(5-isopropyl-1H-indazol-4-yl)-2-((1-methylpyrrolidin-2-yl)methoxy)-5,6,7,8-tetrahydropyrido[3,4-d]pyrimidin-4-yl)piperazin-1-yl)prop-2-en-1-one] |  |  | POC (KRas G12C; 5 µM): C (key: “A”≤25% POC; “B”>25% POC−≤50% POC; “C”>50% POC); IC50 ([1]; Homo sapiens, NCI-H358, 3 h): > 1000 nM |
| C=CC(=O)N1CCN(c2nc(OC[C@@H]3CCCN3C)nc3c2CCN(c2cccc4ccccc24)C3)CC1COC (stereo partly drawn) [Example 256, 1-(2-(methoxymethyl)-4-(2-(((S)-1-methylpyrrolidin-2-yl)methoxy)-7-(naphthalen-1-yl)-5,6,7,8-tetrahydropyrido[3,4-d]pyrimidin-4-yl)piperazin-1-yl)prop-2-en-1-one] | C (“C”>50% POC) | > 1000 nM |  |
| C=CC(=O)N1CCN(c2ncnc3c2CC(=O)N(c2cc(O)cc4ccccc24)C3)CC1 [Example 113, 4-(4-acryloylpiperazin-1-yl)-7-(3-hydroxynaphthalen-1-yl)-7,8-dihydropyrido[3,4-d]pyrimidin-6(5H)-one] | C (“C”>50% POC) |  | IC50 [1, 4]: > 1000 nM |
| C=CC(=O)N1CCN(c2nc(OC[C@@H]3CCCN3C)nc3c2CCN(c2ccncc2C(F)(F)F)C3)CC1CC#N (stereo partly drawn) [Example 239, 2-(1-acryloyl-4-(2-(((S)-1-methylpyrrolidin-2-yl)methoxy)-7-(3-(trifluoromethyl)pyridin-4-yl)-5,6,7,8-tetrahydropyrido[3,4-d]pyrimidin-4-yl)piperazin-2-yl)acetonitrile] | C (“C”>50% POC) | > 1000 nM |  |
| C=CC(=O)N1CCN(c2nc(OC[C@H]3CN(C)CCO3)nc3c2CCN(c2cccc4cccc(Cl)c24)C3)C[C@@H]1CC#N [Example 363, 2-[(2S)-4-[7-(8-chloro-1-naphthyl)-2-[[(2R)-4-methylmorpholin-2-yl]methoxy]-6,8-dihydro-5H-pyrido[3,4-d]pyrimidin-4-yl]-1-prop-2-enoyl-piperazin-2-yl]acetonitrile] | C (“C”>50% POC) | 0.1 to 1000 nM |  |
| C=CC(=O)N1CCN(c2nc(OC[C@@H]3CCCN3C)nc3c2CCN(c2c(C)c(C)cc4[nH]ccc24)C3)CC1 [Example 454, 1-[4-[7-(5,6-dimethyl-1H-indol-4-yl)-2-[[(2S)-1-methylpyrrolidin-2-yl]methoxy]-6,8-dihydro-5H-pyrido[3,4-d]pyrimidin-4-yl]piperazin-1-yl]prop-2-en-1-one] | C (“C”>50% POC) | 0.1 to 1000 nM |  |
| C=CC(=O)N1CCN(c2nc(OCC3CCN(CCO)C3)nc3c2CCN(c2cc(O)cc4ccccc24)C3)CC1 (stereo not shown) [Example 141, 1-[4-[2-[[1-(2-hydroxyethyl)pyrrolidin-3-yl]methoxy]-7-(3-hydroxy-1-naphthyl)-6,8-dihydro-5H-pyrido[3,4-d]pyrimidin-4-yl]piperazin-1-yl]prop-2-en-1-one] | C (“C”>50% POC) | > 1000 nM |  |
| C=CC(=O)N1CCN(c2nc(O[C@H](C)CN(C)C)nc3c2CCN(c2c(O)ccc(C)c2F)C3)CC1 [Example 84, (R)-1-(4-(2-((1-(dimethylamino)propan-2-yl)oxy)-7-(2-fluoro-6-hydroxy-3-methylphenyl)-5,6,7,8-tetrahydropyrido[3,4-d]pyrimidin-4-yl)piperazin-1-yl)prop-2-en-1-one] | A (“A”≤25% POC) |  | IC50 [1, 4]: > 1000 nM |
| C=CC(=O)N1CCN(c2nc(OC[C@@H]3CCCN3CCOC)nc3c2CCN(c2cc(O)cc4ccccc24)C3)CC1 [Example 144, (5)-1-(4-(7-(3-hydroxynaphthalen-1-yl)-2-((1-(2-methoxyethyl)pyrrolidin-2-yl)methoxy)-5,6,7,8-tetrahydropyrido[3,4-d]pyrimidin-4-yl)piperazin-1-yl)prop-2-en-1-one] | C (“C”>50% POC) | 0.1 to 1000 nM |  |
| C=CC(=O)N1CCN(c2nc(OC3CCN(C4CC4)CC3)nc3c2CCN(c2cc(O)cc4ccccc24)C3)CC1 [Example 100, 1-(4-(2-((1-cyclopropylpiperidin-4-yl)oxy)-7-(3-hydroxynaphthalen-1-yl)-5,6,7,8-tetrahydropyrido[3,4-d]pyrimidin-4-yl)piperazin-1-yl)prop-2-en-1-one] | C (“C”>50% POC) | > 1000 nM |  |
| Cc1cccc2cccc(N3CCc4c(nc(OC[C@@H]5CCCN5C)nc4N4CCN(C(=O)/C=C/CN(C)C)[C@@H](CC#N)C4)C3)c12 [Example 456, 2-((S)-1-((E)-4-(dimethylamino)but-2-enoyl)-4-(7-(8-methylnaphthalen-1-yl)-2-(((S)-1-methylpyrrolidin-2-yl)methoxy)-5,6,7,8-tetrahydropyrido[3,4-d]pyrimidin-4-yl)piperazin-2-yl)acetonitrile] | C (“C”>50% POC) | 0.1 to 1000 nM |  |
| C=CC(=O)N1CCN(c2nc(OC[C@@H]3CN(C)CCN3)nc3c2CCN(c2cccc4ccccc24)C3)CC1CC#N (stereo partly drawn) [Example 223, 2-(1-acryloyl-4-(2-(((S)-4-methylpiperazin-2-yl)methoxy)-7-(naphthalen-1-yl)-5,6,7,8-tetrahydropyrido[3,4-d]pyrimidin-4-yl)piperazin-2-yl)acetonitrile] | C (“C”>50% POC) | 0.1 to 1000 nM |  |

From patent US10125134B2 (Mirati Therapeutics, Inc., priority 2016, dated 2018)
